Data from publication PMC10623271 (Heliyon, 2023).

Biological target: α-glucosidase from Bacillus stearothermophilus
Experiment: α-glucosidase assay
Type: biochemical
Conditions: positive control, pNPG, 20 min 60 °C, pH 6.8, ± SD

Compound: C[C@H]1O[C@H](O[C@H]2[C@H](O)[C@@H](O)[C@@H](O[C@H]3[C@H](O)[C@@H](O)C(O)O[C@@H]3CO)O[C@@H]2CO)[C@H](O)[C@@H](O)[C@@H]1N[C@H]1C=C(CO)[C@@H](O)[C@H](O)[C@H]1O (stereo partly shown) [Acarbose, acarbose]
- IC50: 2.9 ± 0.4 nM
